How the values were obtained:
[1] = system: preneoplastic lesions in rat liver; assay: Resistant hepatocyte model, 25 days, histochemical GGT staining of liver sections (Example 2); assay type: in vivo
Protocol: (§1) For the experimental phase in its first stage, male rats of the Fisher 344 strain were used, having 180 to 200 grams body weight, which were bred and kept in an Animal Breeding and Experimentation Unit of the Advanced Research and Studies Center, in a controlled environment with 12-hour cycles of light/darkness at a temperature of 23° C., in hygiene conditions and with free access to food and water. The preneoplastic lesion outgrowth in the liver was induced to the rats by using the resistant hepatocyte model (Semple-Roberts E, Hayes M A, Armstrong D, Becker R A, Racz W J, and Farber E. (1987) Alternative methods of selecting rat hepatocellular nodules resistant to 2-acetylaminofluorence. Int, J. Cancer. 40:643-6451) modified by our research group (Carrasc-Legleu C E, Marquez-Rosado L, Fattel-Fazenda S, Arce-PopocaE, Pérez-Carreón JI, VIIIa-Treviño S. (2004) Chemoprotective effect of caffeic acid phenethyl ester on promotion in a medium-term rat hepatocarcinogenesis assay. Int J. Cancer. 108:488-92).
On days 7, 8, and 9 after the beginning, a dose of 20 mg/kg of weight of 2-acetylaminofluorene (hereinafter called as 2AAF) was administered as carcinogen promoter, and on day 10 after the beginning, rats underwent a partial hepatectomy (HP) of 70% of hepatic mass (the administration of these products along with the hepatectomy is taken into consideration as the entire treatment for this experiment). Lastly, the rats were sacrificed at day 25.
In order to show the beneficial effect of adenosine aspartate in preneoplastic lesions, 6 different experimental groups were designed, as shown in FIG. 2.
The first group (TC), having 8 rats, was administered with the entire treatment; this group was used as positive control of the preneoplastic lesion outgrowth. The second group (IFC-1), having 8 animals, was administered with a pharmacologically effective dose of adenosine aspartate, which for this case, was 50 mg/kg of body weight dissolved in a physiological saline solution, pH 7.4 with 0.5% carboxymethyl-cellulose, replacing DEN carcinogen primer. The third group (IFC-P), having 8 animals, was administered with a pharmacologically effective dose of adenosine aspartate, which for this case, was 50 mg/kg of body weight dissolved in a physiological saline solution, pH 7.4 with 0.5% carboxymethyl-cellulose, replacing 2-AAF carcinogen promoter. In the fourth group (IFC-IP), with 7 animals, both the DEN carcinogen primer and the 2AAF carcinogen promoter were substituted by adenosine aspartate in pharmacologically effective doses, which in this case, was 50 mg/kg of body weight dissolved in a physiological saline solution, pH 7.4 with 0.5% carboxymethyl-cellulose. The fifth group (C-2AAF), having 6 animals, was administered with 2AAF only, being used as control of the administration of adenosine aspartate at the beginning of the second group (IFC-I. Finally, the sixth group(C-DEN), having 7 animals, which received DEN product only, was used as control of the administration of adenosine aspartate in the promotion of group 3 (IFC-P).
When ending the cycle, all groups underwent a partial hepatectomy. […] 17(8):517-526.) Briefly, sections were set in absolute ethanol for 10 min at −20° C.; subsequently, they were treated with a solution that contains 125 μg/ml of γ-glutamil-4-methoxi-2-naphthylamide (GMNA), 0.5 mg/ml of glycyl-glycine and 0.5 mg/ml of Fast Blue in 100 mM of Tris base and they were incubated for 30 minutes at room temperature; finally, they were washed with saline solution, the precipitated were set with 100 mM cupric sulfate solution. All reagents acquired from Sigma Chemical Co. in St Louis, Mo., USA. The enzyme activity was expressed in areas stained with dark red color. […]

[2] = system: preneoplastic lesions in rat liver; assay: Resistant hepatocyte model, adenosine aspartate given after cancer induction, sacrifice at month 12 (Example 1); assay type: in vivo
Protocol: as §1
As can be observed in this figure, this second experiment (IFC) consisted first in administering by intraperitoneal route, one single dose of 200 mg/kg of weight of DEN as carcinogen primer. Additionally, on days 7, 8, and 9 after the beginning, a dose of 20 mg/kg of weight of 2AAF was administered as carcinogen promoter, and on day 10 after the beginning, rats underwent an HP. […]

alpha-fetoprotein = conditions: cirrhotic patients with slightly high levels; cited from earlier work
cirrhosis of the liver = conditions: cited from earlier work
[3] = group IFC-I: adenosine aspartate 50 mg/kg as primer replacing DEN, day 25
[4] = group IFC-IP: adenosine aspartate 50 mg/kg as primer and promoter replacing DEN and 2AAF, day 25
[5] = group IFC-P: adenosine aspartate 50 mg/kg as promoter replacing 2AAF, day 25

Substance: adenosine aspartate
- effect over the preneoplastic lesion outgrowth compared with respective control groups ([1]; as primer (IFC-I) or as promoter (IFC-P), vs C-2AAF and C-DEN): no effect
- average of positive GGT foci/cm^2 regarding the control group with the entire treatment (TC = 100%) [1, 3]: 1.3%
- positive GGT area regarding the control group with the entire treatment (TC = 100%) [1, 3]: 0.4%
- positive GGT arborescences in liver ([1]; group IFC-I: as primer): some livers presented positive GGT arborescences
- number of positive GGT foci/cm^2 regarding the control group with the entire treatment (TC = 100%) [1, 4]: 0.2%
- positive GGT area regarding the control group with the entire treatment (TC = 100%) [1, 4]: 0.08%
- development of preneoplastic lesions ([1]; group IFC-IP: as primer and as promoter): no preneoplastic lesions were developed
- average of positive GGT foci/cm^2 regarding the control group with the entire treatment (TC = 100%) [1, 5]: 7.1%
- positive GGT area regarding the control group with the entire treatment (TC = 100%) [1, 5]: 4.6%
- positive GGT arborescences and preneoplastic lesions in liver ([1]; group IFC-P: as promoter): positive GGT arborescences were not observed but small preneoplastic lesions were observed
- alterations (number and area) compared with control groups C-2AAF and C-DEN ([1]; groups IFC-I and IFC-P): lower in number as well as in area
- effect on already installed preneoplastic lesions ([2]; 60 mg/kg every 3 days from month 8 until month 12): reversal effect
- alterations of cancer or preneoplastic lesions ([2]; administered after a product used to induce cancer, 60 mg/kg every 3 days from month 8): no suggestive alterations of cancer or preneoplastic lesions were present
- serum levels of alpha-fetoprotein (alpha-fetoprotein): reduces serum levels of alpha-fetoprotein
- accumulation of collagen (cirrhosis of the liver): reducing the accumulation of collagen
